Measured values from patent US20200216432A1, “SULFONAMIDE DERIVATIVES AS STAT3 INHIBITORS FOR THE TREATMENT OF PROLIFERATIVE DISEASES” (King's College London, priority 2017, published 2020).
pIC50: −log10 of the molar value. Square brackets hold non-standard residues; d marks the D form. Peptide text beside a SMILES is read from it. pY = N[C@@H](Cc1ccc(OP(=O)(O)O)cc1)C(=O)O

How the values were obtained:
[1] = test system: MDA-MB-231 breast (STAT3-dependent) cancer cell line; assay: MTT cell viability assay, MDA-MB-231; assay type: cell-based, human; details: for pIC50: Homo sapiens, MDA-MB-231, 48 h, MTT, 48 hours exposure (table title); for Selectivity ratio: STAT3-null A4 versus STAT3-dependent MDA-MB-231
Source text: (§1) MTT Cell viability assay with both MDA-MB-231 breast (STAT3-dependent) and A4 (STAT3-null) cancer cell lines.
(§2) After observing significant STAT3 dimerisation inhibitory activity in the preliminary FP assay, the target ligand and related fragments were progressed to an MTT cytotoxicity assay to evaluate in a STAT3-dependent tumour cell line (MDA MB 231, breast cancer) and a STAT3 null A4 cell line. It was anticipated that the compounds would show selective toxicity towards the STAT3-dependent MDA MB 231 cell line and would have lost activity in the STAT3 null A4 cell line if the mechanism of action was STAT3-mediated.
(§3) For each cell line, a total of 10,000 cells were seeded for 24 hours before addition of the inhibitors. The cells were grown in normal cell culture conditions at 37° C. under a 5% CO2 humidified atmosphere using an appropriate medium. The cell count was adjusted to 10^5 cells/ml, and 5,000-20,000 cells were added per well depending on the cell line. The cells were then incubated for 24 hours, and 1 μl aliquots of the inhibitors were added to the wells in triplicate. […] Absorbance was quantified by spectrophotometry at A=570 nm (Envision™ Plate Reader, PerkinElmer™, USA). IC50 values were calculated by a dose-response analysis using the Prism GraphPad Prism® software package.

[2] = biological target: unphosphorylated STAT3 monomer (uSTAT3) SH2 domain (Homo sapiens, UniProt P40763); assay: Fluorescence polarisation assay for the inhibition of STAT3 dimerisation; assay type: binding; details: 350 nM uSTAT3, 10 nM FAM-pYLPQTV, 100 μM ligand; average of triplicate
Source text: Fluorescence Polarisation Assay for the Inhibition of STAT3 Dimerisation
The compounds were subjected to an in vitro fluorescent polarisation (FP)-based primary PPI binding screen to assess their ability to inhibit STAT3 dimerisation by interacting with the SH2 domain. In this FP assay, the unphosphorylated STAT3 monomer (uSTAT3) and a surrogate peptide FAM-pYLPQTV were used to form a ‘pseudo-dimer’. The assay is based on the concept that the compounds were expected to displace the surrogate peptide from the uSTAT3 resulting in a fluorescent read out.
Specifically, for the FP assay, a black (CORNING™) 96 well plate was thoroughly washed with distilled water and allowed to dry. A 100 nM FAM-pYLPQTV working solution was prepared from 10 μM FAM-pYLPQTV stock solution (in DMSO) using PBS pH 7.4 Buffer. 10 μl FAM-pYLPQTV was added to 350 nM uSTAT3 protein, the final concentration of protein in each well, in 90 μl PBS buffer pH 7.4. The MP value of the surrogate dimer complex was measured using a fluorescent plate reader (Envision™, Perkin Elmer™, USA), which provided the base MP value. The inhibitor solution was then added to the well and the assay plate was placed on a shaker for 5 minutes. The MP value for each well was then measured again. A shift in fluorescent values was observed due to displacement of the fluorescently-labelled surrogate peptide by the inhibitors, and the average inhibition for each inhibitor could be calculated as described below:
Base MP value (X) for each well=MP value of Protein and Probe (350 nm STAT3+10 nM FAM-pYLPQTV)−MP value of free FAM-pYLPQTV
Inhibitor MP value (Y) for each well=MP value of Protein+Probe+Inhibitor (350 nm uSTAT3+10 nM FAM-pYLPQTV+2 μL Inhibitor)−MP value of free FAM-pYLPQTV with 2 μL DMSO
% inhibition by any ligand/peptide=(X−Y)/X*100
For comparison purpose, the % inhibition produced by 100 μM pYLKTKF was considered to be 100%, and the inhibition produced by different ligands was reported as relative to 100 μM pYLKTKF.
% Inhibition produced by 100 μM pYLKTKF=A
% Inhibition produced by 100 μM Ligand=B
Relative inhibition (%)=B/A*100
The experiment was carried out in triplicate, and average values were taken as the measure of PPI inhibition.

[3] = test system: A4 (STAT3-null) cancer cell line; assay: MTT cell viability assay, A4; assay type: cell-based; details: exposure (table title)
Source text: as §1, §2, §3

Chain of unphosphorylated STAT3 monomer (uSTAT3) SH2 domain (P40763 whole entry, the tested form may be a part): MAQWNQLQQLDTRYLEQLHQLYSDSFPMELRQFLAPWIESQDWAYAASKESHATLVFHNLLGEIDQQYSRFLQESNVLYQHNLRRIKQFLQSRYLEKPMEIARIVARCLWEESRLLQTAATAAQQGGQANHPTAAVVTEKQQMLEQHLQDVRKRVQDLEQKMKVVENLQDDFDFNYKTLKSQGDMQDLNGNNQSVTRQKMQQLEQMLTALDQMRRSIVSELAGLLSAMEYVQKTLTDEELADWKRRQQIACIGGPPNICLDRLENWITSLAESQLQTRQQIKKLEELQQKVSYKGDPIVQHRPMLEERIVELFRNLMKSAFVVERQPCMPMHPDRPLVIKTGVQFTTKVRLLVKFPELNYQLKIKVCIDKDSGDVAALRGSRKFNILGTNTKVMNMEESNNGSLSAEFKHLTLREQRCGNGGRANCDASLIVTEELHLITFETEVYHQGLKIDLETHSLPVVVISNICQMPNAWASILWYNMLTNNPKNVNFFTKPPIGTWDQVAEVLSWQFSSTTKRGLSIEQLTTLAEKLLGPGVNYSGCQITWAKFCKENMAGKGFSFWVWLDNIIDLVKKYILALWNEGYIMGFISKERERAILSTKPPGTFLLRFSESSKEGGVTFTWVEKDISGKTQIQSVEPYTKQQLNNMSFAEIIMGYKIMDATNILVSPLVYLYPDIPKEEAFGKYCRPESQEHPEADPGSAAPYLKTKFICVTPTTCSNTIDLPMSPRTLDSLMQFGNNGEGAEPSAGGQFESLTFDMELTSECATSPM

Row | SMILES | pIC50 [1] | inhibition at 100 µM [2] [%] | pIC50 [3] | Selectivity ratio [1] | cytotoxicity in the MTT assay ([1]; highest concentration (100 μM) evaluated)
1 | COC(=O)c1ccc(N(C)S(=O)(=O)c2cc(C(=O)NCc3ccc(CN4CCCCC4)cc3)sc2-c2ccc(N3CCOCC3)cc2)cc1 [Compound 1, methyl 4-((N-methyl-2-(4-morpholinophenyl)-5-((4-(piperidin-1-ylmethyl)benzyl)carbamoyl)thiophene)-3-sulfonamido)benzoate] | 5.57 | 59.4 | 4.12 | 28.13 | 
2 | COC(=O)c1ccc(N(C)S(=O)(=O)c2cc(C(=O)NCc3ccc(CN4CCCCC4)cc3)sc2-c2ccc(N3CCCCC3)cc2)cc1 [Compound 2, methyl 4-((N-methyl-2-(4-(piperidin-1-yl)phenyl)-5-((4-(piperidin-1-ylmethyl)benzyl)carbamoyl)thiophene)-3-sulfonamido)benzoate] | 5.67 | 51.2 | 4.07 | 39.76 | 
3 | COC(=O)c1ccc(N(C)S(=O)(=O)c2cc(C(=O)NCc3ccc(CN4CCCCC4)cc3)sc2-c2ccnc(N3CCN(C)CC3)c2)cc1 [Compound 5, methyl 4-((N-methyl-2-(2-(4-methylpiperazin-1-yl)pyridin-4-yl)-5-((4-(piperidin-1-ylmethyl)benzyl)carbamoyl)thiophene)-3-sulfonamido)benzoate] | 5.61 | 46.9 | 4.24 | 23.62 | 
4 | COC(=O)c1ccc(N(C)S(=O)(=O)c2cc(C(=O)NCc3ccc(CN4CCCCC4)cc3)sc2-c2ccc(C(=O)N3CCN(C)CC3)cc2)cc1 [Compound 7, methyl 4-((N-methyl-2-(4-(4-methylpiperazine-1-carbonyl)phenyl)-5-((4-(piperidin-1-ylmethyl)benzyl)carbamoyl)thiophene)-3-sulfonamido)benzoate] | 5.19 | 40.6 | 4.19 | 10.01 | 
5 | COC(=O)c1ccc(N(C)S(=O)(=O)c2cc(C(=O)NCc3ccc(CN4CCCCC4)cc3)sc2-c2ccc(C#N)cc2)cc1 [Compound 8, methyl 4-((2-(4-cyanophenyl)-N-methyl-5-((4-(piperidin-1-ylmethyl)benzyl)carbamoyl)thiophene)-3-sulfonamido)benzoate] | 4.91 | 36.4 | 4.46 | 2.76 | 
6 | COC(=O)c1ccc(N(C)S(=O)(=O)c2cc(C(=O)Nc3ccc(OCCN4CCOCC4)cc3)sc2-c2ccc(N3CCOCC3)cc2)cc1 [Compound 9, methyl 4-((N-methyl-5-((4-(2-morpholinoethoxy)phenyl)carbamoyl)-2-(4-morpholinophenyl)thiophene)-3-sulfonamido)benzoate] | 5.54 | 54.1 | 4.05 | 31.21 | 
7 | COC(=O)c1ccc(N(C)S(=O)(=O)c2cc(C(=O)Nc3ccc(OCCN4CCOCC4)cc3)sc2-c2ccc(N3CCN(C)CC3)nc2)cc1 [Compound 11, methyl 4-((N-methyl-2-(6-(4-methylpiperazin-1-yl)pyridin-3-yl)-5-((4-(2-morpholinoethoxy)phenyl)carbamoyl)thiophene)-3-sulfonamido)benzoate] | 5.12 | 58.3 | 4.18 | 8.84 | 
8 | COC(=O)c1ccc(N(C)S(=O)(=O)c2cc(C(=O)Nc3ccc(OCCN4CCOCC4)cc3)sc2-c2ccc(C(=O)N3CCOCC3)cc2)cc1 [Compound 12, methyl 4-((N-methyl-2-(4-(morpholine-4-carbonyl)phenyl)-5-((4-(2-morpholinoethoxy)phenyl)carbamoyl)thiophene)-3-sulfonamido)benzoate] | 5.41 | 59.4 | 4.12 | 19.28 | 

Further lines, with some results ahead:

Row | pIC50 [1] | inhibition at 100 µM [2] [%] | pIC50 [3] | SMILES | Selectivity ratio [1] | cytotoxicity in the MTT assay ([1]; highest concentration (100 μM) evaluated)
9 | 5.73 | 56.2 | 4.13 | COC(=O)c1ccc(N(C)S(=O)(=O)c2cc(C(=O)Nc3ccc(OCCN4CCOCC4)cc3)sc2-c2ccnc(N3CCN(C)CC3)c2)cc1 [Compound 13, methyl 4-((N-methyl-2-(2-(4-methylpiperazin-1-yl)pyridin-4-yl)-5-((4-(2-morpholinoethoxy)phenyl)carbamoyl)thiophene)-3-sulfonamido)benzoate] | 40.01 | 
10 | 4.84 | 33.3 | 4.11 | COC(=O)c1ccc(N(C)S(=O)(=O)c2cc(C(=O)Nc3ccc(OCCN4CCOCC4)cc3)sc2-c2ccnc(N3CCNCC3)c2)cc1 [Compound 14, methyl 4-((N-methyl-5-((4-(2-morpholinoethoxy)phenyl)carbamoyl)-2-(2-(piperazin-1-yl)pyridin-4-yl)thiophene)-3-sulfonamido)benzoate] | 5.40 | 
11 | 5.00 | 40.6 | 4.07 | COC(=O)c1ccc(N(C)S(=O)(=O)c2cc(C(=O)Nc3ccc(OCCN4CCOCC4)cc3)sc2-c2ccc(C(=O)N3CCN(C)CC3)cc2)cc1 [Compound 15, methyl 4-((N-methyl-2-(4-(4-methylpiperazine-1-carbonyl)phenyl)-5-((4-(2-morpholinoethoxy)phenyl)carbamoyl)thiophene)-3-sulfonamido)benzoate] | 8.45 | 
12 | 5.96 | 47.9 | 4.45 | COC(=O)c1ccc(N(C)S(=O)(=O)c2cc(C(=O)Nc3ccc(OCCN4CCOCC4)cc3)sc2-c2ccc(C#N)cc2)cc1 [Compound 16, methyl 4-((2-(4-cyanophenyl)-N-methyl-5-((4-(2-morpholinoethoxy)phenyl)carbamoyl)thiophene)-3-sulfonamido)benzoate] | 32.36 | 
13 | 5.33 | 43.7 | 4.19 | COC(=O)c1ccc(N(C)S(=O)(=O)c2cc(C(=O)NCc3ccc(N4CCN(C)CC4)cc3)sc2-c2ccc(N3CCCCC3)cc2)cc1 [Compound 17, methyl 4-((N-methyl-5-((4-(4-methylpiperazin-1-yl)benzyl)carbamoyl)-2-(4-(piperidin-1-yl)phenyl)thiophene)-3-sulfonamido)benzoate] | 13.68 | 
14 | 5.46 | 45.8 | 4.34 | COC(=O)c1ccc(N(C)S(=O)(=O)c2cc(C(=O)Nc3ccc(N4CCCCC4)cc3)sc2-c2ccc(N3CCCCC3)cc2)cc1 [Compound 18, methyl 4-((N-methyl-2-(4-(piperidin-1-yl)phenyl)-5-((4-(piperidin-1-yl)phenyl)carbamoyl)thiophene)-3-sulfonamido)benzoate] | 12.94 | 
15 |  | 47.1 |  | COC(=O)c1ccc(N(C)S(=O)(=O)c2cc(C(=O)Nc3ccc4c(ccn4Cc4ccccc4)c3)sc2Br)cc1 [Compound 40, methyl 4-((5-((1-benzyl-1H-indo1-5-yl)carbamoyl)-2-bromo-N-methylthiophene)-3-sulfonamido)benzoate] |  | 
16 |  | 41.6 |  | CC(C)C[C@H](NC(=O)[C@@H](N)Cc1ccc(OP(=O)(O)O)cc1)C(=O)N[C@@H](CCCCN)C(=O)N[C@H](C(=O)N[C@@H](CCCCN)C(=O)N[C@@H](Cc1ccccc1)C(=O)O)[C@@H](C)O [pYLKTKF, reference compound] (H-[pY]LKTKF-OH) |  | did not show any cytotoxicity
